Measurements reported in article PMC4764579, “Structural insights into the mechanism of activation of the TRPV1 channel by a membrane-bound tarantula toxin” (eLife, 2016).
Positions of bridges follow the written chain, without caps; N, C: chain ends. Residues, ends and D or L forms follow the SMILES beside them.

Biological target: T1, rat TRPV1 (Rattus norvegicus, UniProt O35433)
T1 construct: expressed in transfected cells; host or cells: Xenopus laevis oocytes (cRNA injection, pGEM-HE vector)
Assay: Two-electrode voltage clamp recordings of oocytes expressing TRPV1, toxin current normalised to saturating capsaicin
Format: cell-based
Details: concentration-response, see Figure 3F
Text: Figure 3. Validation of the proposed structural model of the TRPV1-DkTx complex. Close-up of K1 (A) and K2 (B) in the top-ranking ROSETTA model of DkTx bound to TRPV1. Side chains of TRPV1 residues where mutation disrupts DkTx-induced channel activation (I599, F649, A657 and F659) ([Bohlen et al., 2010]) are highlighted in purple. (C) Representative time courses of TRPV1 activation at +120 mV by either DkTx (left panel), K1K1 (middle panel) or K2K2 (right panel) measured from a train of voltage-ramps in the whole-cell configuration with the TRPV1 expressed in HEK cells. […] Fractional dissociation 1 min after toxin removal was quantified across cells as the current amplitude 1 min after toxin removal divided by the steady-state current amplitude in the presence of the toxin. […] Activation of the full-length TRPV1 channel by the toxin at different concentrations was measured in oocytes at a holding voltage of −60 mV. […]
Xenopus laevis oocytes were surgically removed and gently shaken for 60 min in a solution of 82.5 mM NaCl, 2.5 mM KCl, 1 mM MgCl2, 5 mM HEPES and 2 mg/mL collagenase. […] TRPV1 activity was recorded under voltage clamp using a two-electrode voltage clamp (OC-725C; Warner Instruments) in a 150-μL recording chamber. The recorded data were filtered at 1 kHz and digitized at 5 kHz using a digidata analog/digital converter and pClamp software (Molecular Devices). […]

T1 sequence (O35433 whole entry): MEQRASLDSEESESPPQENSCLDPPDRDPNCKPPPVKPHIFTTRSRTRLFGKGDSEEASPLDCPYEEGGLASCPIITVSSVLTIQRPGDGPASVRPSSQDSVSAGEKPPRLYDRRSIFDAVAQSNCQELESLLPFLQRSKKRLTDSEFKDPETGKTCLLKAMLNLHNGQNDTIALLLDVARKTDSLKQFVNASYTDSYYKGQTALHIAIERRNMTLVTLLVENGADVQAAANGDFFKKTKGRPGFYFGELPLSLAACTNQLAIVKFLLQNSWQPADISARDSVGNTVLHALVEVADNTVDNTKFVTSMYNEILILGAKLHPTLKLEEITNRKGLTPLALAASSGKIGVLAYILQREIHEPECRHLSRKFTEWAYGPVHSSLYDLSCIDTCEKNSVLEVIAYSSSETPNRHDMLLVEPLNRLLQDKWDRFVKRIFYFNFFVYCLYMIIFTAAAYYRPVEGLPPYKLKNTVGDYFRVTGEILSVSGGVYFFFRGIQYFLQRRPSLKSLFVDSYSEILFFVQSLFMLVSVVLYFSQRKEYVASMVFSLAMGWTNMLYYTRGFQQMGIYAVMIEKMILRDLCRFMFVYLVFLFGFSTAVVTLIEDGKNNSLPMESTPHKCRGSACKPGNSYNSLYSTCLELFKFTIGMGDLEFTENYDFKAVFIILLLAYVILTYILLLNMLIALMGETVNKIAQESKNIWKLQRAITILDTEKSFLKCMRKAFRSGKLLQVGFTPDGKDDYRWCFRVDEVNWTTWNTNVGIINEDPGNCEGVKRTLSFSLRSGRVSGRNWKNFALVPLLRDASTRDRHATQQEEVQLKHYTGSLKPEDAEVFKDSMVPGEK

In the case of `CC[C@H](C)[C@@H]1NC(=O)[C@H](Cc2ccccc2)NC(=O)[C@H](C)NC(=O)[C@H](CC(C)C)NC(=O)[C@@H]2CCCN2C(=O)[C@@H]2CSSC[C@@H]3NC(=O)[C@H](C(C)C)NC(=O)[C@H](CCC(=O)O)NC(=O)CNC(=O)[C@H](CCC(=O)O)NC(=O)[C@H](CCCCN)NC(=O)[C@H](C)NC(=O)[C@@H](NC(=O)[C@@H](N)CC(N)=O)CSSC[C@H](NC(=O)[C@H](CSSC[C@@H](C(=O)N[C@@H](CCC(=O)O)C(=O)N[C@@H](CCCCN)C(=O)N[C@@H](Cc4ccc(O)cc4)C(=O)N[C@@H](CCCNC(=N)N)C(=O)O)NC(=O)[C@H](Cc4ccc(O)cc4)NC(=O)[C@@H]4CCCN4C1=O)NC(=O)[C@H](CCCCN)NC(=O)[C@H](CO)NC(=O)CNC(=O)[C@H](Cc1c[nH]c4ccccc14)NC(=O)CNC3=O)C(=O)N[C@@H](Cc1c[nH]cn1)C(=O)NCC(=O)N[C@@H](CC(C)C)C(=O)N[C@@H](CC(=O)O)C(=O)N2` [K2] (H-NCAKEGEVCGWGSKCCHGLDCPLAFIPYCEKYR-OH; disulfide 2-16, 9-21, 15-29 (inferred); N-terminus and C-terminus assumed), the “concentration range where activation of TRPV1 saturates (in words)” value is reported as “low micromolar range”.
